According to the NIST ThermoML archive (doi:10.1016/j.jct.2008.05.014):

Assay: xn = mol fraction of the nth substance listed
Settings: Liquid; for speed of sound: Pulse-echo method

CCCCCCCCCCCC [dodecane] + CCCCCCC
Settings | mass density [kg/m3] | speed of sound [m/s]
292.89 K, 101 kPa, x2 = 0.7002 | – | 1210.7
292.89 K, 101 kPa, x2 = 0.8995 | – | 1174.4
292.89 K, 30390 kPa, x2 = 0.8496 | – | 1366.5
292.89 K, 45590 kPa, x2 = 0.8496 | – | 1439.7
292.89 K, 60790 kPa, x2 = 0.8496 | – | 1505.9
292.89 K, 91180 kPa, x2 = 0.8496 | – | 1623.3
292.9 K, 101 kPa, x2 = 0.8 | – | 1193.4
292.91 K, 101 kPa, x2 = 0.1007 | – | 1289.6
292.91 K, 101 kPa, x2 = 0.2001 | – | 1279
292.91 K, 101 kPa, x2 = 0.5002 | – | 1241.3
293.15 K, 101 kPa, x2 = 0 | 748.921 | –
293.15 K, 101 kPa, x2 = 0.0991 | 744.788 | –
293.15 K, 101 kPa, x2 = 0.2008 | 740.186 | –
293.15 K, 101 kPa, x2 = 0.2998 | 735.319 | –
293.15 K, 101 kPa, x2 = 0.3996 | 729.97 | –
293.15 K, 101 kPa, x2 = 0.5 | 724.072 | –
293.15 K, 101 kPa, x2 = 0.6 | 717.632 | –
293.15 K, 101 kPa, x2 = 0.7005 | 710.489 | –
293.15 K, 101 kPa, x2 = 0.7995 | 702.66 | –
293.15 K, 101 kPa, x2 = 0.8486 | 698.428 | –
293.15 K, 101 kPa, x2 = 0.8988 | 693.851 | –
293.15 K, 101 kPa, x2 = 0.9498 | 688.947 | –
298.14 K, 30390 kPa, x2 = 0.97 | – | 1329.4
298.14 K, 30410 kPa, x2 = 0.9391 | – | 1333.2
298.14 K, 45590 kPa, x2 = 0.9391 | – | 1408.7
298.14 K, 45590 kPa, x2 = 0.97 | – | 1405.4
298.14 K, 60790 kPa, x2 = 0.9391 | – | 1476.6
298.14 K, 60790 kPa, x2 = 0.97 | – | 1473.9
298.14 K, 75990 kPa, x2 = 0.97 | – | 1536.2
298.14 K, 91180 kPa, x2 = 0.9391 | – | 1596.4
298.14 K, 91180 kPa, x2 = 0.97 | – | 1594.1
298.14 K, 101320 kPa, x2 = 0.9391 | – | 1632.6
298.14 K, 101320 kPa, x2 = 0.97 | – | 1630.6
298.15 K, 101 kPa, x2 = 0 | 745.269 | –
298.15 K, 101 kPa, x2 = 0.0991 | 741.128 | –
298.15 K, 101 kPa, x2 = 0.2008 | 736.497 | –
298.15 K, 101 kPa, x2 = 0.2998 | 731.58 | –
298.15 K, 101 kPa, x2 = 0.5 | 720.233 | –
298.15 K, 101 kPa, x2 = 0.7005 | 706.501 | –
298.15 K, 101 kPa, x2 = 0.7995 | 698.598 | –
298.15 K, 101 kPa, x2 = 0.8486 | 694.34 | –
298.15 K, 101 kPa, x2 = 0.8988 | 689.718 | –
298.15 K, 101 kPa, x2 = 0.9498 | 684.775 | –
298.15 K, 15200 kPa, x2 = 0.5003 | – | 1314.6
298.15 K, 15200 kPa, x2 = 0.9391 | – | 1247.1
298.15 K, 15200 kPa, x2 = 0.97 | – | 1242.9
298.15 K, 30390 kPa, x2 = 0.4999 | – | 1393.4
298.15 K, 30390 kPa, x2 = 0.5003 | – | 1393.3
298.15 K, 45590 kPa, x2 = 0.1014 | – | 1499.1
298.15 K, 45590 kPa, x2 = 0.4999 | – | 1464
298.15 K, 45590 kPa, x2 = 0.5003 | – | 1464.1
298.15 K, 45590 kPa, x2 = 0.7007 | – | 1440.8
298.15 K, 60790 kPa, x2 = 0.1014 | – | 1560.5
298.15 K, 60790 kPa, x2 = 0.3007 | – | 1544.4
298.15 K, 60790 kPa, x2 = 0.4999 | – | 1527.7
298.15 K, 60790 kPa, x2 = 0.5003 | – | 1528
298.15 K, 60790 kPa, x2 = 0.7007 | – | 1506.5
298.15 K, 75990 kPa, x2 = 0.1014 | – | 1618.2
298.15 K, 75990 kPa, x2 = 0.4999 | – | 1586.8
298.15 K, 75990 kPa, x2 = 0.5003 | – | 1587
298.15 K, 75990 kPa, x2 = 0.7007 | – | 1566.5
298.15 K, 75990 kPa, x2 = 0.9391 | – | 1538.7
298.15 K, 91180 kPa, x2 = 0.1014 | – | 1671
298.15 K, 91180 kPa, x2 = 0.4999 | – | 1641.7
